{
  "source": "patent US9717820B2",
  "about": "“Procoagulant peptides and their derivatives and uses therefor” (Ethicon, Inc., priority 2011, dated 2017)",
  "key": {"[1]": {"tested_on": "clopidogrel and acetylsalicylic acid treated porcine spleen biopsy punch model", "test": "clopidogrel and acetylsalicylic acid treated porcine spleen biopsy punch model (platelet inactivated)", "type": "in vivo", "conditions": "mixture with Surgiflo, 0.5 mM PEG2000-RK8 in saline, FIG. 8", "procedure": "The data was collected using a clopidogrel and acetylsalicylic acid treated porcine spleen biopsy punch model (6 mm wide×3 mm deep, tamponade time: 30 sec; observation time: 30 sec; the following oral dosages were applied to a 4-month-old female porcine (weight: 66.1 Kg): • 2 days prior to the lab: 300 mg of Plavix and 325 mg of aspirin. • 1 day prior to the lab: 75 mg of Plavix and 325 mg of aspirin. • The day for the lab: 75 mg of Plavix and 325 mg of aspirin before the surgery."}, "[2]": {"tested_on": "porcine blood containing sodium citrate", "test": "bench top test: solution added to citrated porcine blood in glass vials", "conditions": "100 μL of 0.5 mM solution added to 100 μL citrated porcine blood; for precipitation of blood: after 2 hrs", "procedure": "In a bench top experiment, pegylated SEQ ID NO: 1 in normal saline solution, non-pegylated SEQ ID NO: 1 in normal saline solution, and control solution of normal saline were tested to evaluate interaction with blood. Samples were prepared by adding 100 μL of pegylated SEQ ID NO: 1 in normal saline solution (0.5 mM), SEQ ID NO: 1 in normal saline solution (0.5 mM), and normal saline to separate glass vials containing 100 μL of porcine blood containing sodium citrate (0.105M). […] Thus the pegylated SEQ ID NO: 1 and non-pegylated SEQ ID NO: 1 was shown as promoting rapid blood coagulation."}, "fresh porcine blood": {"tested_on": "fresh porcine blood", "test": "bench top test: treated Monocryl pad with fresh porcine blood", "conditions": "100 μL of 0.5 mM on 0.025 g Monocryl pad, 150 μL fresh porcine blood, 2 minutes, room temperature", "procedure": "In a bench top experiment, a synthetic porous pad was treated with pegylated SEQ ID NO: 1 in saline solution or with control solution of saline to evaluate interaction with blood. Samples were prepared by adding 100 μL of pegylated SEQ ID NO: 1 in normal saline solution (0.5 mM) or 200 μL of normal saline solution to 0.025 g Monocryl (poliglecaprone 25) pad. The impregnated Monocryl* (poliglecaprone 25) pads were then air-dried for 2 hrs following by an 1-hr vacuum drying process.\n150 μL of fresh porcine blood was then added to each pad separately, and allowed it sit at room temperature for 2 minutes. The pads were then transferred to a Petri dish containing 20 mL of saline solution, observing non-coagulated blood diffusing out from the pads. […] Thus the pegylated SEQ ID NO: 1 was shown as promoting rapid blood coagulation."}, "[3]": {"tested_on": "porcine spleen biopsy punch model", "test": "porcine spleen biopsy punch model, time to hemostasis", "type": "in vivo", "conditions": "for hemostatic performance vs Surgiflo with normal saline: ORC powder scaffold, FIG. 5, N=4; for time to hemostasis vs thrombin: FIG. 2, N=3; for time to hemostasis vs Surgiflo with saline and with PEG2000 (5 mM): FIG. 3, N=3; for hemostatic efficacy vs Surgiflo with thrombin: 0.05-5 mM; for hemostatic efficacy (time to hemostasis): pegylated (PEG2000) 8 amino acid peptides in mixture with Surgiflo, FIG. 5", "procedure": "The data was collected using in vivo porcine spleen biopsy punch model [6 mm wide×3 mm deep], initial tamponade time: 30 s; observation time: 30 s; N=3.\nIn vivo hemostatic activity study was performed using the porcine spleen biopsy punch model, with the punched wound opening 6 mm wide×3 mm deep made on the spleen and the test article applied to a freshly created wound site followed by an occlusive digital pressure (tamponade). Pressure was initially applied for 30 second and was timed using an electronic timer. Following the 30 seconds tamponade, digital pressure was discontinued; the gauze pad on the article was immediately removed. A 30-second hemostasis evaluation period was performed. If free flow bleeding was not observed within 30 seconds, the time to hemostasis was noted, in a minutes seconds format, and testing was concluded for that article. If free flow bleeding was observed, pressure and gauze were reapplied for additional 30 seconds tamponade and observation periods until hemostasis was achieved or until the testing period reached ten minutes. Hemostasis was determined by the cessation of free flow bleeding in less than ten minutes. Gauze pad was used as a negative control.\nThe data was collected using porcine spleen biopsy punch model [6 mm wide×3 mm deep], initial tamponade time: 30 s; observation time: 30 s; N=3.\nThe data was collected using porcine spleen biopsy punch model [6 mm wide×3 mm […]], initial tamponade time: 30 s; observation time: 30 s; N=3.\nThe inventors have tested the following ORC-based compositions: • mixtures of ORC with pegylated SEQ ID NO: 1 at 5 mM concentration (designated on the chart as ORC/PEG2000-RK-8) • mixtures of ORC with SEQ ID NO: 1 at 5 mM concentration (designated on the chart as ORC/RK-8) • mixtures of ORC with normal saline The data was collected using porcine spleen biopsy punch model [6 mm wide×3 mm […]], initial tamponade time: 30 s; observation time: 30 s; N=4.\nThe data was collected using porcine spleen biopsy punch model [6 mm wide×3 mm deep], initial tamponade time: 30 s; observation time: 30 s."}, "[4]": {"tested_on": "Heparinized Porcine spleen biopsy punch model", "test": "Heparinized porcine spleen biopsy punch model, time to hemostasis", "type": "in vivo", "conditions": "mixture with Surgiflo; for hemostatic effect in heparinized blood: 2 mL of 5 mM in saline (thrombin: EVITHROM), ACT above 300 seconds", "text": "The model was Heparinized Porcine spleen biopsy punch model: 6 mm wide×3 mm deep, tamponade time: 30 sec; observation time: 30 sec; activated clotting time (ACT) was maintained above 300 seconds by infusing additional 2000 IU heparin solution if needed. 9975 IU of heparin solution was initially applied to a 39.1 Kg porcine."}, "washed human platelets": {"tested_on": "washed human platelets", "conditions": "washed human platelets from different donors; cited from earlier work"}, "[5]": {"conditions": "mixture with Surgiflo, 5 mM, FIG. 6"}, "[6]": {"conditions": "mixture with Surgiflo, FIG. 4, N=3"}},
  "note": "No end group written: not given here. mPEG 5000 = methoxy-PEG, average 5000 Da, coupled via mPEG-NHS",
  "data": [
    {"substance": "pegylated SEQ ID NO: 1: SEQ ID NO: 1 with mPEG (average 2000 Da) conjugated onto the N-terminus via mPEG-NHS ({mPEG 2000 Da}-RFYVVMWK)", "values": [
      {"measurement": "hemostatic efficacy vs Surgiflo/Thrombin", "setting": "[1]", "result": "working as well as Surgiflo/Thrombin"},
      {"measurement": "clouding of blood", "setting": "[2]", "result": "instantly observed"},
      {"measurement": "precipitation of blood", "setting": "[2]", "result": "complete precipitation of blood"},
      {"measurement": "coagulated blood trapped in treated pad", "setting": "fresh porcine blood", "result": "significant amount of coagulated blood"},
      {"measurement": "hemostatic performance vs Surgiflo with normal saline", "setting": "[3]; 5 mM", "result": "not suitable"},
      {"measurement": "hemostatic testing", "setting": "[3]; Pluronic acid F127 scaffold, 5 mM, FIG. 6", "result": "failed in hemostatic testing"},
      {"measurement": "time to hemostasis vs thrombin", "setting": "[3]; mixture with Surgiflo, 0.05 mM to 5 mM", "result": "comparable to thrombin"},
      {"measurement": "time to hemostasis", "setting": "[3]; mixture with Surgiflo, 0.05 mM, FIG. 4, N=3", "result": "particularly fast time to hemostasis"},
      {"measurement": "time to hemostasis vs thrombin", "setting": "[3]; mixture with Surgiflo, 0.1 mM", "result": "possibly better time to hemostasis than Thrombin"},
      {"measurement": "time to hemostasis vs Surgiflo with saline and with PEG2000 (5 mM)", "setting": "[3]; mixture with Surgiflo, 5 mM", "result": "much faster time to hemostasis"},
      {"measurement": "effectiveness as hemostatic agent (time to hemostasis)", "setting": "[3]; [5]", "result": "performed as well as thrombin"},
      {"measurement": "hemostatic efficacy vs Surgiflo with thrombin", "setting": "[3]; [6]", "result": "better or similar hemostatic efficacy"},
      {"measurement": "hemostatic efficacy vs SEQ ID NO: 1 and Thrombin", "setting": "[3]; mixtures with Surgiflo, FIG. 4, further analysis", "result": "better hemostatic efficacy than SEQ ID NO: 1 and Thrombin"},
      {"measurement": "hemostatic effect in heparinized blood", "setting": "[4]; FIG. 7", "result": "some hemostatic effect"},
      {"measurement": "time to hemostasis", "setting": "[4]; 2 mL of 5 mM in saline, heparinized blood, FIG. 7", "result": 6.8, "unit": "min"}
    ]},
    {"substance": "SEQ ID NO: 7: PEG2000-conjugated peptide KYFLLQFR (Lys-Tyr-Phe-Leu-Leu-Gln-Phe-Arg) (PEG2000-KYFLLQFR)", "values": [
      {"measurement": "hemostatic efficacy (time to hemostasis)", "setting": "[3]; 5 mM", "result": "somewhat longer time to hemostasis, comparable to non-pegylated SEQ ID NO: 1"}
    ]},
    {"substance": "Arg-Phe-Tyr-Val-Val-Met-Trp-Lys (RFYVVMWK) [SEQ ID NO: 1]", "values": [
      {"measurement": "clouding of blood", "setting": "[2]", "result": "instantly observed"},
      {"measurement": "precipitation of blood", "setting": "[2]", "result": "complete precipitation of blood"},
      {"measurement": "hemostatic performance vs Surgiflo with normal saline", "setting": "[3]; 5 mM", "result": "not suitable"},
      {"measurement": "time to hemostasis vs Surgiflo with saline and with PEG2000 (5 mM)", "setting": "[3]; mixture with Surgiflo, 5 mM", "result": "much faster time to hemostasis"},
      {"measurement": "effectiveness as hemostatic agent (time to hemostasis)", "setting": "[3]; [5]", "result": "performed as well as thrombin"},
      {"measurement": "hemostatic efficacy vs Surgiflo with thrombin", "setting": "[3]; [6]", "result": "hemostatic efficacy comparable to mixtures of Surgiflo™ with thrombin"},
      {"measurement": "hemostatic effect in heparinized blood", "setting": "[4]; FIG. 7", "result": "failed as hemostat in heparinized blood"},
      {"measurement": "concentrations that induce activation and aggregation of platelets", "setting": "washed human platelets", "result": "5 to 25", "unit": "mM"}
    ]},
    {"substance": "SEQ ID NO: 21: PEG2000-conjugated random sequence 8 amino acid peptide KVYRWFMV (PEG2000-KVYRWFMV) [reference compound]", "values": [
      {"measurement": "hemostatic efficacy (time to hemostasis)", "setting": "[3]; 5 mM", "result": "longer time to hemostasis, comparable to SF/saline mixture"}
    ]},
    {"substance": "PEG5000-SEQ ID NO: 1: SEQ ID NO: 1 with mPEG 5000 conjugated onto the N-terminus via mPEG-NHS ({mPEG 5000}-RFYVVMWK)", "values": [
      {"measurement": "hemostatic efficacy vs thrombin, non-pegylated SEQ ID NO: 1 and other controls", "setting": "[4]; heparinized blood, 5 mM", "result": "superior hemostatic efficacy"},
      {"measurement": "hemostatic effect in heparinized blood", "setting": "[4]; FIG. 7", "result": "significant hemostatic efficacy"}
    ]},
    {"substance": "thrombin", "values": [
      {"measurement": "hemostatic effect in heparinized blood", "setting": "[4]; FIG. 7", "result": "failed as hemostat in heparinized blood"}
    ]}
  ]
}
